Measurements as given in ChEMBL document CHEMBL4033683, “Dual functional small molecule fluorescent probes for image-guided estrogen receptor-specific targeting coupled potent antiproliferative potency for breast cancer therapy” (Bioorg Med Chem, 2017).
The source made the active and inactive calls. The calls are words filed in the database; no cut-off is given here.

Key:
[1] = molecular target: T1, Estrogen receptor beta (Homo sapiens, UniProt Q92731); test: Agonist activity at ERbeta (unknown origin) expressed in HEK293T cells after 24 hrs by luciferase reporter gene assay relative to estradiol; type: cell-based
[2] = test system: MDA-MB-231; test: Antiproliferative activity against human MDA-MB-231 cells after 72 hrs by MTT assay; type: functional, cell-based; settings: MDA-MB-231, 72 h
[3] = molecular target: T2, Estrogen receptor (Homo sapiens, UniProt P03372); test: Antagonist activity at ERalpha (unknown origin) expressed in HEK293T cells assessed as inhibition of estradiol-induced response after 24 hrs by luciferase reporter gene assay; type: cell-based
T2 sequence (P03372 whole entry): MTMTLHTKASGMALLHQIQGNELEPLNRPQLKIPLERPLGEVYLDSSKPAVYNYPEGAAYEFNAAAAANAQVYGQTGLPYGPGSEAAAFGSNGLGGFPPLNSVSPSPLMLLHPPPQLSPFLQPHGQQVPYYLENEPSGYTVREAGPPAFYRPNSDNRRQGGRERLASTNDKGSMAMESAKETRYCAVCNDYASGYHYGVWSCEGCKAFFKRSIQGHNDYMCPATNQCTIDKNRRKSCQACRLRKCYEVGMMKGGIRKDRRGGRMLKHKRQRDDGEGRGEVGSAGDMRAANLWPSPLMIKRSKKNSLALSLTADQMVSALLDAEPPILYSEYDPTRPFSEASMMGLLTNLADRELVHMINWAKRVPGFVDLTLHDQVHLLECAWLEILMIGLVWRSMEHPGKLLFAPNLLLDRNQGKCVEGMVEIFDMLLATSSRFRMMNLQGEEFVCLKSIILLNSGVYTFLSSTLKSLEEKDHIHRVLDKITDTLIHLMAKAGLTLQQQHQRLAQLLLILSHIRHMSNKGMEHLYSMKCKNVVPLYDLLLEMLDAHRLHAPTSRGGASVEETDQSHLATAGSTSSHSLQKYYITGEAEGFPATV

[4] = test system: MDA-MB-453; test: Antiproliferative activity against human MDA-MB-453 cells after 72 hrs by MTT assay; type: functional, cell-based; settings: MDA-MB-453, 72 h
[5] = molecular target: T1, Estrogen receptor beta; test: Agonist activity at ERbeta (unknown origin) expressed in HEK293T cells after 24 hrs by luciferase reporter gene assay; type: cell-based
[6] = molecular target: T3, Estrogen receptor (Homo sapiens) (UniProt P03372); test: Antagonist activity at ERalpha (unknown origin) expressed in HEK293T cells assessed as inhibition of estradiol-induced response after 24 hrs by luciferase reporter gene assay relative to estradiol; type: cell-based
T3 sequence (whole entry): T2 sequence (P03372 whole entry)

[7] = test system: MCF7; test: cells; settings: Homo sapiens, MCF7, 72 h
[8] = molecular target: T3, Estrogen receptor (Homo sapiens); test: Agonist activity at ERalpha (unknown origin) expressed in HEK293T cells after 24 hrs by luciferase reporter gene assay; type: cell-based
[9] = organism: Homo sapiens; test: Binding affinity to ER in human MCF7 cells at 1 uM up to 4 mins by real time imaging analysis; type: cell-based
[10] = organism: Homo sapiens; test: Binding affinity to ER in human MCF7 cells at 10 uM preincubated for 2 hrs followed by estradiol addition measured after 10 mins by confocal laser scanning microscopic method; type: cell-based
[11] = molecular target: T3, Estrogen receptor (Homo sapiens); test: Binding affinity to ERalpha (unknown origin) at 1 uM in presence of estradiol by fluorescence assay
[12] = Drug uptake in nucleus of human MCF7 cells at 1 uM up to 4 mins by real time fluorescence imaging analysis; type: ADME
[13] = molecular target: T1, Estrogen receptor beta; test: Binding affinity to ERbeta (unknown origin) at 1 uM in presence of estradiol by fluorescence assay
[14] = Drug uptake in cytosol of human MCF7 cells at 1 uM up to 4 mins by real time fluorescence imaging analysis; type: ADME
[15] = organism: Homo sapiens; test: Binding affinity to ER in human MCF7 cells assessed as increase in fluorescence in cytosol at 10 uM after 2 hrs by confocal laser scanning microscopic method; type: cell-based
[16] = Drug uptake in human MDA-MB-231 cells at 10 uM after 2 hrs by confocal laser scanning microscopic method; type: ADME, cell-based; settings: mda-mb-231, 2 h
[17] = molecular target: T3, Estrogen receptor (Homo sapiens); test: Binding affinity to ERalpha (unknown origin) at 1 uM by fluorescence assay
[18] = molecular target: T1, Estrogen receptor beta; test: Binding affinity to ERbeta (unknown origin) at 1 uM by fluorescence assay
[19] = organism: Homo sapiens; test: Binding affinity to ER in human MCF7 cells assessed as increase in fluorescence in nucleus at 10 uM after 2 hrs by confocal laser scanning microscopic method; type: cell-based
[20] = organism: Homo sapiens; test: Binding affinity to ER in human MCF7 cells assessed as increase in fluorescence in cytosol at 1 uM up to 4 mins by real time imaging analysis; type: cell-based
[21] = organism: Homo sapiens; test: Binding affinity to ER in human MCF7 cells assessed as increase in fluorescence in nucleus at 1 uM up to 4 mins by real time imaging analysis; type: cell-based

T1 sequence (Q92731 whole entry): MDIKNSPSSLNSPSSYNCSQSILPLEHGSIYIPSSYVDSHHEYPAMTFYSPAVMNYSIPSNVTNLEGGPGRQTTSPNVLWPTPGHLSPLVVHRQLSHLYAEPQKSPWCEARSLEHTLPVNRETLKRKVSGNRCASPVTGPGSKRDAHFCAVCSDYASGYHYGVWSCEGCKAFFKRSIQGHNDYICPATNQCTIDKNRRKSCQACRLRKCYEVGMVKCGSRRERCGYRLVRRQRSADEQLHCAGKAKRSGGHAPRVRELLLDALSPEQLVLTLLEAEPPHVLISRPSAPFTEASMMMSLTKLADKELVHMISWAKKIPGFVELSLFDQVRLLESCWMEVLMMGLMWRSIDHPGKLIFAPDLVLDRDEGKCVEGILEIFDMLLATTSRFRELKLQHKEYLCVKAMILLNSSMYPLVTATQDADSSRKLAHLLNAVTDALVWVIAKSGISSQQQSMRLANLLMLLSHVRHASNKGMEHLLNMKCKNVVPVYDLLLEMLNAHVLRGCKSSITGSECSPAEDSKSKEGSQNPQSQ

Efficacy [1] [%] | IC50 [2] [µM] | IC50 [3] [µM] | IC50 [4] [µM] | EC50 [5] [µM] | Efficacy [6] [%] | IC50 [7] [µM] | Activity [8] | SMILES | other results
33.4 | 59.8 | 0.222 | 29.1 | 0.012 | 15.2 | 49 |  | O=c1oc2cc(O)ccc2c(-c2ccc(O)cc2)c1-c1ccc(O)cc1 | 
72.1 | > 100 | 0.112 | 55.3 | 0.011 | 65.3 | > 100 | inactive | Cc1cc(O)ccc1-c1c(C)c2ccc(O)cc2oc1=O | 
138 | > 100 |  | > 100 | 0.542 | 101 | > 100 | inactive | O=c1oc2cc(O)ccc2cc1-c1ccc(O)cc1 | 
 | 48.6 |  | 39.8 |  |  | 50 | inactive | CCc1c(-c2ccc(O)c(F)c2)c(=O)oc2cc(O)ccc12 | 
66.7 | > 100 |  | > 100 | 0.207 | 124 | > 100 | inactive | O=c1oc2cc(O)ccc2cc1-c1ccc(O)c(F)c1 | 
-6.9 | > 100 | 0.012 | 8.03 |  | 26.4 | 16.1 | inactive | CCc1c(-c2ccc(O)cc2F)c(=O)oc2cc(O)ccc12 | Activity [9]: Active; Activity [10]: inactive; Activity [11]: inactive; Drug uptake [12]: Not Active; Activity [13]: inactive; Drug uptake [14]: Not Active; Activity [15]: Active; Drug uptake [16]: Not Active; Activity [17]: Active; Activity [18]: Active; Activity [19]: Active; Activity [20]: Active; Activity [21]: Active
 |  |  |  |  |  |  |  | C[C@]12CC[C@@H]3c4ccc(O)cc4CC[C@H]3[C@@H]1CC[C@@]2(O)C#Cc1ccc(CNC(=O)c2ccc(-c3c4ccc(=O)cc-4oc4cc(O)ccc34)c(C(=O)O)c2)cc1 | Activity [9]: inactive; Drug uptake [16]: Active
68.2 | > 100 |  | 37.2 | 0.343 | 120 | 49.3 | inactive | CCc1c(-c2ccc(O)cc2Cl)c(=O)oc2cc(O)ccc12 | Activity [10]: inactive; Activity [11]: inactive; Activity [13]: inactive; Activity [15]: Active; Drug uptake [16]: Not Active; Activity [17]: Active; Activity [18]: Active; Activity [19]: Active
-11.2 | > 100 | 0.219 | 31.7 |  | 57.8 | 40.1 | inactive | O=c1oc2cc(O)ccc2c(-c2ccc(O)c(F)c2)c1-c1ccc(O)c(F)c1 | 
12.9 | 46.1 | 1.24 | 26.7 | 0.894 | 84.6 | 21.6 | inactive | Cc1c(-c2ccc(O)cc2Cl)c(=O)oc2cc(O)ccc12 | 

SMILES | Efficacy [1] [%] | IC50 [2] [µM] | IC50 [3] [µM] | IC50 [4] [µM] | EC50 [5] [µM] | Efficacy [6] [%] | IC50 [7] [µM] | Activity [8] | other results
CCC(=C(c1ccc(O)cc1)c1ccc(OCCN(C)C)cc1)c1ccccc1 |  | 20.1 |  | 10.4 |  |  |  |  | 
